Patent US12679839B2, “Cyclin-dependent kinase 7 (CDK7) non-covalent inhibitors” (JANSSEN PHARMACEUTICA NV, priority 2020, dated 2026)

Target: T1, CDK7/Cyclin H/MAT-1 complex (Homo sapiens, UniProt P50613)
T1 construct: Human CDK7 (amino acids 1-346); His6 (N); TEV protease cleavage site (N); made in house; host or cells: baculovirus-SF9 insect cells
Test: Absorbance kinetic assay (20 nM CDK7/Cyclin H/MAT-1 complex)
Format: biochemical
Conditions: for IC50: read-out: CDK7 (20 nM) pIC50 (converted)
Procedure, shortened: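 Trimeric complex (His6-TEV CDK7 1-346, MAT1 1-309, cyclin H 1-323) from Sf9 cells, at 20 nM, phosphorylating RNA Pol II-derived CDK7/9-tide; ADP coupled via PK/LDH to NADH depletion read at 340 nm every 2 min for 8 h. Steady-state slopes gave % inhibition; IC50 from 11-point Hill fit.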

T1 sequence (P50613 whole entry, the tested form may be a part): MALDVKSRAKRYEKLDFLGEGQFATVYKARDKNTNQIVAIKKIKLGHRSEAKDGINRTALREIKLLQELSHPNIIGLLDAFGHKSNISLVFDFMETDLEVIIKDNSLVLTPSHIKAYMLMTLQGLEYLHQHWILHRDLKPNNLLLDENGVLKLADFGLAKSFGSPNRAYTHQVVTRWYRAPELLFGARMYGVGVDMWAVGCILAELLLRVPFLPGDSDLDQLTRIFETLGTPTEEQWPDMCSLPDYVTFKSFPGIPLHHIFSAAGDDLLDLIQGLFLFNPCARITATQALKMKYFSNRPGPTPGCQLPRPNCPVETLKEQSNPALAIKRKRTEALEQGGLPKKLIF
T1 sequence (P51946 whole entry partner, the tested form may be a part): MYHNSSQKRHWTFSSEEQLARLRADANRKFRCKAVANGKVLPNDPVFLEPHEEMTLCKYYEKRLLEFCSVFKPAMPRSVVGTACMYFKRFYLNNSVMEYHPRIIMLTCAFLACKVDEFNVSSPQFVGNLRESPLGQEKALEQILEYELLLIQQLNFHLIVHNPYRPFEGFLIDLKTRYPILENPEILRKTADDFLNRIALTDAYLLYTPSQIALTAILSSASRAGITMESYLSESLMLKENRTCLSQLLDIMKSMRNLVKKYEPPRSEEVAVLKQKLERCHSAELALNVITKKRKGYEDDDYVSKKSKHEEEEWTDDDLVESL
T1 sequence (P51948 whole entry partner, the tested form may be a part): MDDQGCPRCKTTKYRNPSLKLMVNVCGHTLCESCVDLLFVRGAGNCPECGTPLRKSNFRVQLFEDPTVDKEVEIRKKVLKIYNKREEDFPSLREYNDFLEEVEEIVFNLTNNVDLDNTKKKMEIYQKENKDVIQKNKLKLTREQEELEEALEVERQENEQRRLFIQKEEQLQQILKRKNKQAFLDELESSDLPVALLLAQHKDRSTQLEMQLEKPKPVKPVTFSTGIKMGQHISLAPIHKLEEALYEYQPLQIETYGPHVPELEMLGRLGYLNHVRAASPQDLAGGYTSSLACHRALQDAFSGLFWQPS

Compound | CDK7 (20 nM) pIC50 | IC50 [nM]
C[C@@H]1Cc2cnc(NC3CCN(CC(F)(F)F)CC3)nc2CN1C(=O)[C@H]1CCN(C)C[C@@H]1c1ccccc1 [Compound 45] | 7.62 | 
C[C@@H]1Cc2cnc(NCc3cc[nH]n3)nc2CN1C(=O)[C@H]1CCN(C)C[C@@H]1c1ccccc1 [Compound 51] |  | 51.3
Cc1ccc([C@@H]2CN(C)CC[C@H]2C(=O)N2Cc3nc(NC4CCOCC4)ncc3C[C@H]2C)cn1 (relative stereo) [Compound 108] |  | 105
C[C@@H]1Cc2cnc(Nc3cnn4c3CCCC4)nc2CN1C(=O)[C@H]1CCN(C)C[C@@H]1c1ccccc1 [Compound 77] | 7.53 | 
C[C@@H]1Cc2cnc(NCc3ccn(C)c3)nc2CN1C(=O)[C@H]1CCN(C)C[C@@H]1c1ccccc1 [Compound 60] |  | < 9.77
Cc1ccc(CNc2ncc3c(n2)CN(C(=O)[C@H]2CCN(C)C[C@@H]2c2ccccc2)[C@H](C)C3)o1 [Compound 50] | 7.6 | 
CC(C)n1cc(Nc2ncc3c(n2)CN(C(=O)[C@H]2CCN(C)C[C@@H]2c2ccccc2)[C@H](C)C3)cn1 [Compound 89] | 6.1 | 
CN1CC[C@H](C(=O)N2Cc3nc(NCc4ccn(C)n4)ncc3CC2(C)C)[C@@H](c2ccccc2)C1 (single isomer, unassigned) [Compound 191] | 6.53 | 
CO[C@H]1CC[C@H](Nc2ncc3c(n2)CN(C(=O)[C@H]2CCN(C)C[C@@H]2c2ccc(C)nc2)[C@H](C)C3)CC1 (relative stereo) [Compound 110] |  | < 9.77
C[C@H]1Cc2cnc(NC3(c4ccccc4)COC3)cc2CN1C(=O)[C@H]1CCN(C)C[C@@H]1c1ccccc1 (single isomer, unassigned) [Compound 175] | 7.52 | 
C[C@@H]1Cc2cnc(NCc3ccccc3)nc2CN1C(=O)[C@H]1CCN(CC2COC2)C[C@@H]1c1ccccc1 (single isomer, unassigned) [Compound 155] | >8.01 | 
C[C@@H]1Cc2cnc(Nc3cnn(CC(C)(C)O)c3)nc2CN1C(=O)[C@H]1CCN(C)C[C@@H]1c1ccccc1 [Compound 74] | 7.72 | 
C[C@@H]1c2nc(NC3CCOCC3)ncc2[C@@H](C)CN1C(=O)[C@H]1CCN(C)C[C@@H]1c1ccccc1 [Compound 180a] | >8.01 | 
Cc1cccc([C@H]2CN(C)CC[C@@H]2C(=O)N2Cc3nc(NC4CCOCC4)ncc3C[C@H]2C)c1 [Compound 93] | >8.01 | 
C[C@@H]1Cc2cnc(NC(C)(C)c3cnn(C)c3)nc2CN1C(=O)[C@H]1CCN(C)C[C@@H]1c1ccccc1 [Compound 90] | 7.43 | 
C[C@H](Nc1ncc2c(n1)CN(C(=O)[C@H]1CCN(C)C[C@@H]1c1ccccc1)[C@H](C)C2)c1ccn(C)n1 (single isomer, unassigned) [Compound 55] |  | 141
C[C@@H]1Cc2cnc(NC[C@H]3CCOC3)nc2CN1C(=O)[C@H]1CCN(C)C[C@@H]1c1ccccc1 [Compound 53] | 7.39 | 
C[C@@H]1Cc2cnc(NC3CCN(S(C)(=O)=O)CC3)nc2CN1C(=O)N1CCN(C)C[C@@H]1c1ccccc1 [Compound 209] | 7.77 | 
C[C@@H]1Cc2cnc(N[C@H]3CCC[C@H](O)C3)nc2CN1C(=O)[C@H]1CCN(C)C[C@@H]1c1ccccc1 [Compound 59] | >8.01 | 
CO[C@H]1CC[C@H](Nc2ncc3c(n2)CN(C(=O)[C@H]2CCN(C)C[C@@H]2c2ccccc2)[C@H](C)C3)CC1 [Compound 37] | 8.01 | 

Compound | CDK7 (20 nM) pIC50 | IC50 [nM]
C[C@@H]1Cc2cnc(N[C@H]3CC[C@H](O)CC3)nc2CN1C(=O)[C@H]1CCN(C)C[C@@H]1c1ccccc1 [Compound 12] | >8.01 | 
Cc1cccc([C@H]2CN(C)CC[C@@H]2C(=O)N2Cc3nc(Nc4cnn(C)c4)ncc3[C@@H]3C[C@@H]32)c1 (relative stereo) [Compound 203] |  | 17
C[C@@H]1Cc2cnc(NC3CCN(S(=O)(=O)C4CC4)CC3)nc2CN1C(=O)N1CCN(C)C[C@@H]1c1ccccc1 [Compound 210] | >7.7 | 
CO[C@H]1CC[C@H](Nc2ncc3c(n2)CN(C(=O)[C@H]2CCN(C)C[C@@H]2c2ccccc2)[C@H]2C[C@@H]32)CC1 [Compound 201] | 7.48 | 
CN1CC[C@H](C(=O)N2Cc3nc(Nc4cnn(C)c4)ncc3[C@@H]3C[C@@H]32)[C@@H](c2ccccc2)C1 [Compound 200] | 7.46 | 
C[C@@H]1Cc2cnc(N[C@H]3CC[C@H](C)CC3)nc2CN1C(=O)[C@H]1CCN(C)C[C@@H]1c1ccccc1 [Compound 13] | 8.01 | 
C[C@@H]1Cc2cnc(N[C@H]3CCOC4(CCC4)C3)nc2CN1C(=O)[C@H]1CCN(C)C[C@@H]1c1ccccc1 (relative stereo) [Compound 9] |  | < 9.77
C[C@@H]1Cc2cnc(NCc3cnn(C)c3)nc2CN1C(=O)[C@H]1CCN(C)C[C@@H]1c1ccccc1 [Compound 57] | 6.66 | 
C[C@@H]1Cc2cnc(NCc3ccccc3)nc2CN1C(=O)[C@H]1CCN(C)C[C@@H]1c1ccccc1 [Compound 43] | 8.01 | 
C[C@@H]1Cc2cnc(Nc3ccnn3C)nc2CN1C(=O)[C@H]1CCN(C)C[C@@H]1c1ccccc1 [Compound 79] | 7.37 | 
C[C@@H]1Cc2cnc(NC3CCOCC3)nc2CN1C(=O)[C@H]1CCN(C)C[C@@H]1c1ccc(Cl)c(F)c1 [Compound 122b] | 7.15 | 
CO[C@H]1CC[C@H](Nc2cc3c(cn2)C[C@H](C)N(C(=O)[C@@H]2CCN(C)C[C@H]2c2cccc(C)c2)C3)CC1 [Compound 177a] |  | 28.8
Cc1cc(Nc2ncc3c(n2)CN(C(=O)[C@H]2CCN(C)C[C@@H]2c2ccccc2)[C@H](C)C3)ccn1 [Compound 78] | 7.93 | 
C[C@@H]1Cc2cnc(NCc3ccsc3)nc2CN1C(=O)[C@H]1CCN(C)C[C@@H]1c1ccccc1 [Compound 48] | 7.59 | 
C[C@@H]1Cc2cnc(NCc3cc(C(F)F)n(C)n3)nc2CN1C(=O)[C@H]1CCN(C)C[C@@H]1c1ccccc1 [Compound 56] | 6.85 | 
C[C@H](Nc1ncc2c(n1)CN(C(=O)[C@H]1CCN(C)C[C@@H]1c1ccccc1)[C@H](C)C2)c1ccccn1 [Compound 20] | 8.01 | 
[2H]C([2H])(Nc1ncc2c(n1)CN(C(=O)[C@H]1CCN(C)C[C@@H]1c1ccccc1)[C@H](C)C2)c1ccccc1 [Compound 70] |  | < 9.77
CCn1ccc(CNc2ncc3c(n2)CN(C(=O)[C@H]2CCN(C)C[C@@H]2c2ccccc2)[C@H](C)C3)n1 [Compound 58] | >8.01 | 
C[C@@H]1Cc2cnc(NC3CCOCC3)nc2CN1C(=O)N1CCN(C)C[C@@H]1c1ccccc1 [Compound 204a] | 7.81 | 
C[C@@H]1Cc2cnc(NC3CCS(=O)(=O)CC3)nc2CN1C(=O)[C@H]1CCN(C)C[C@@H]1c1ccccc1 [Compound 44] | >7.7 | 

Compound | CDK7 (20 nM) pIC50 | IC50 [nM]
C[C@H]1Cc2cnc(NCc3ccn(C)n3)cc2CN1C(=O)[C@H]1CCN(C)C[C@@H]1c1ccccc1 (relative stereo) [Compound 174] |  | 11.2
Cc1cccc([C@H]2CN(C(C)C)CC[C@@H]2C(=O)N2Cc3nc(NC4CCOCC4)ncc3C[C@H]2C)c1 [Compound 166] | 7.74 | 
C[C@@H]1Cc2cnc(NC3Cc4ccccc4C3)nc2CN1C(=O)[C@H]1CCN(C)C[C@@H]1c1ccccc1 [Compound 29] | 8.01 | 
C[C@@H]1Cc2cnc(NC3CCC(OCC4CC4)CC3)nc2CN1C(=O)[C@H]1CCN(C)C[C@@H]1c1ccccc1 (stereo partly shown) [Compound 3] | >8.01 | 
C[C@@H]1Cc2cnc(NC3CCOCC3)nc2CN1C(=O)[C@@H]1CC[C@@H](N(C)C)CN1c1ccccc1 (mixture of isomers) [Compound 167] | 6.25 | 
C[C@@H]1Cc2cnc(NCc3ccn(C)n3)nc2CN1C(=O)[C@H]1CCN(C)C[C@@H]1c1ccccc1 [Compound 1] | 8.01 | 
CO[C@H]1CC[C@H](Nc2cc3c(cn2)C[C@H](C)N(C(=O)[C@H]2CCN(C)C[C@@H]2c2cccc(C)c2)C3)CC1 [Compound 177c] |  | 389
C[C@@H]1Cc2cnc(NC[C@@H]3CCOC3)nc2CN1C(=O)[C@H]1CCN(C)C[C@@H]1c1ccccc1 [Compound 62] | >8.01 | 
C[C@@H]1Cc2cnc(NC3CCS(=O)(=O)CC3)nc2CN1C(=O)N1CCN(C)C[C@@H]1c1ccccc1 [Compound 214] | 7.55 | 
C[C@H]1Cc2cnc(NC3CCOCC3)nc2CN1C(=O)N1CCN(C)C[C@H]1c1cccc(F)c1 (relative stereo) [Compound 212] |  | 13.2
C[C@@H]1Cc2cnc(Nc3cnn(C)c3)nc2CN1C(=O)[C@H]1CCN(C)C[C@@H]1c1ccccc1 [Compound 82] | >8.01 | 
CO[C@H]1CC[C@H](Nc2ncc3c(n2)CN(C(=O)[C@H]2CCN(C)C[C@@H]2c2ccccc2)C2(CC2)C3)CC1 [Compound 192] | 6.80 | 
C[C@@H]1Cc2cnc(NCc3ccn(C)n3)nc2CN1C(=O)[C@@H]1CCN(C)C[C@H]1c1cccc(OC(F)(F)F)c1 (relative stereo) [Compound 127] |  | 234
C[C@@H]1Cc2cnc(NCc3ccn(C)n3)nc2CN1C(=O)[C@H]1CCN(C)C[C@@H]1c1cccc(OC(F)(F)F)c1 (relative stereo) [Compound 128] |  | 18.6
C[C@@H]1Cc2cnc(NCc3ccn(C)n3)nc2CN1C(=O)N1CCN(C)C[C@@H]1c1ccccc1 [Compound 213] | 6.8 | 
Cc1cn(C)nc1CNc1ncc2c(n1)CN(C(=O)[C@H]1CCN(C)C[C@@H]1c1ccccc1)[C@H](C)C2 [Compound 61] | >8.01 | 
C[C@@H]1Cc2cnc(NC3CCN(S(=O)(=O)N(C)C)CC3)nc2CN1C(=O)N1CCN(C)C[C@@H]1c1ccccc1 [Compound 211] | >7.7 | 
C[C@@H]1Cc2cnc(Nc3ccnc(C(F)F)c3)nc2CN1C(=O)[C@H]1CCN(C)C[C@@H]1c1ccccc1 [Compound 75] | 7.46 | 
